Type in all cases: biochemical
One test has as its target MMP-13 (Homo sapiens, UniProt P45452). The experiment in a line: In-vitro fluorescence assay of MMP-13 activity. As for the experimental part:
See Knight, C. […] […].
The method was essentially the same as for the determination of MMP-1 activity, described above, except that the final concentration of purified MMP in the assay was 0.5 nM, prepared by diluting with the assay buffer.

For test [1], the target named is T1, recombinant human catalytic domain of MMP-1 (Homo sapiens, UniProt P03956).
T1 construct: The source of enzyme in the assay was the recombinant human catalytic domain of MMP-1
T1 sequence (P03956 100-269 limits assumed): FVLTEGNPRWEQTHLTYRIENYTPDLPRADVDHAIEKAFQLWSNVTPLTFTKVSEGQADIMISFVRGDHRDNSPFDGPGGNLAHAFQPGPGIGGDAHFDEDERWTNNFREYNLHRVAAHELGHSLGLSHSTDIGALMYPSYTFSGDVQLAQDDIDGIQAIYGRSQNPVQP
The experiment in a line: In-vitro fluorescence assay of MMP-1 activity.
Description: A continuous assay was used in which the substrate is a synthetic peptide containing a fluorescent group (7-methoxycoumarin; Mca) that is quenched by energy transfer to a 2,4-dinitrophenyl group. […] The substrate used was Mca-PQGL-(3-[2,4-dinitrophenyl]-L-2,3-diaminopropionyl)-AR-OH (denoted as Wammp-5, custom synthesized by AnaSpec, Inc.). The assay buffer consisted of 50 mM Hepes (pH 7.4), 100 mM NaCl, 5 mM CaCI2, and 0.005% Brij-35. Each well of black polystyrene 96-well plates contained a 200 μL reaction mixture consisting of assay buffer, purified MMP (final concentration of 25 ng/ml, prepared by diluting with the assay buffer), and varied concentrations of inhibitor (prepared by serially diluting a given inhibitor in DMSO in 96-well polypropylene plate). […] The enzymatic reactions were initiated by adding the substrate to a final concentration of 20 μM, and mixing 10 times with a pipette. The final DMSO concentration in the assay was 6.0%.
Plots of the inhibitor concentration vs. the percent inhibition were fit to the following equation: y=(a−d)/[1+(x/c)^b]+d, a general sigmoidal curve with Hill slope, a to d. x is the inhibitor concentration under test. y is the percent inhibition. a is the limiting response as x approaches zero. As x increases without bound, y tends toward its limit d. c is the inflection point (IC50) for the curve. That is, y is halfway between the lower and upper asymptotes when x=c. b is the slope factor or Hill coefficient.

The next test deals with T2, recombinant human MMP-9 (Homo sapiens, UniProt P14780).
T2 construct: purchased Calbiochem PF024
Description: In-vitro fluorescence assay of MMP-9 activity. As to the method: The method was similar to that for the determination of MMP-1 activity, described above, with the following differences. Active, recombinant human MMP-7 was purchased from Calbiochem (catalog #444270; expressed in E. coli, 19 kDa). […] The concentration of the substrate stock was spectrophotometrically determined using the extinction coefficient at 410 nm of 7500 M^−1 cm^−1. The assay buffer (pH 7.4) consisted of 50 mM Hepes, 100 mM NaCl, 5 mM CaCI2, and 0.005% Brij-35. […] The plates were then incubated at room temperature for 30 minutes. The enzymatic reactions were initiated by adding substrate to a final concentration of 15 μM and were mixed by pipelting up and down. The final DMSO concentration in the assay was 10% and the final, total assay volume was 200 μl. […].
The method was essentially the same as for the determination of MMP-7 activity, described above, except that the source of enzyme in the assay was recombinant human MMP-9 (83 kDa) was purchased from Calbiochem (catalog #PF024), the final enzyme concentration was 0.5-1.0 nM, and the final substrate concentration was 20 μM.

The target of test [2] is T3, TACE (catalytic domain of the recombinant TACE protein) (Homo sapiens, UniProt P78536).
T3 construct: The catalytic domain of the recombinant TACE protein was expressed and purified; made in house
The experiment in a line: TACE FRET assay using TACE Cat. The conditions noted are these: FRET, pro-TNF-α substrate peptide; read-out: TACE IC50. An outline of the steps:
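Recombinant TACE catalytic domain (1 ug/ml) pre-incubated 10 min at room temperature with inhibitor in 50 mM Tris-HCl pH 7.4, 25 mM NaCl, 4% glycerol, 0.005% Brij 35; Abz/Dpa pro-TNF-α peptide substrate added, fluorescence (Ex 320/Em 420) followed 10 min; IC50 from initial rates by Hill fit.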

Bounds are passed on as bounds.

T2 sequence (P14780 107-707 limits assumed): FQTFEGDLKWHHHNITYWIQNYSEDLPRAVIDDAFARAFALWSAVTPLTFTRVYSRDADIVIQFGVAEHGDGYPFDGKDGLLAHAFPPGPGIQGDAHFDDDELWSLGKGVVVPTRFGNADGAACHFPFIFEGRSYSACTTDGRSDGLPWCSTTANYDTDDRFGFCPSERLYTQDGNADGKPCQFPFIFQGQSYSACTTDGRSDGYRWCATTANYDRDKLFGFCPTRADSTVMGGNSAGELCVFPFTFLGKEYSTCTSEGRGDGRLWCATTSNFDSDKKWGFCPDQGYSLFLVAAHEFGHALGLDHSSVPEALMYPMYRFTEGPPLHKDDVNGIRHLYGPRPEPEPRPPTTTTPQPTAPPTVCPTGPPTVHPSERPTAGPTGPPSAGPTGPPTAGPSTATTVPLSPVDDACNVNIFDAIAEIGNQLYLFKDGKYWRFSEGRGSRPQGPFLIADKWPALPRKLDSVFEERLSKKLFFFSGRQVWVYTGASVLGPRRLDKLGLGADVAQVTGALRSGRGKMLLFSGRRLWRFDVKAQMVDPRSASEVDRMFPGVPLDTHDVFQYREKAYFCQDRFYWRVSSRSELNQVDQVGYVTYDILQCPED
T3 sequence (P78536 223-474 limits assumed): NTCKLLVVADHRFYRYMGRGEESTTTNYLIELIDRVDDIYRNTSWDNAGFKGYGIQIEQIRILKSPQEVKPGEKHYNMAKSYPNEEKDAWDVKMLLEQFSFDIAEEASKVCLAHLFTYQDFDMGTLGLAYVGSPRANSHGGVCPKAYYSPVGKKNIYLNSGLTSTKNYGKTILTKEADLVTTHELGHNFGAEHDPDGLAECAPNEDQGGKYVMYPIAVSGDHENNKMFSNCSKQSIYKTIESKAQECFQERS

A word on the IC50: it is the point on the concentration scale where inhibition reaches its midpoint. Turning to `Cc1cc(COc2ccc(S(=O)(=O)N[C@@H]3CN(S(C)(=O)=O)C[C@@H]3C(=O)NO)cc2)c2ccccc2n1` (relative stereo) [Example 17, cis-N-Hydroxy-4-[({4-[(2-methylquinolin-4-yl)methoxy]phenyl}sulfonyl)amino]-1-(methylsulfonyl) pyrrolidine-3-carboxamide], the IC50 against MMP-13 was more than 10 µM; in test [1], more than 16.7 µM; at recombinant human MMP-9 it was more than 16.7 µM; in test [2], 0.6 nM.
For the compound `Cc1cc(COc2ccc(S(=O)(=O)N[C@@H]3CN(C=O)C[C@@H]3C(=O)NO)cc2)c2ccccc2n1` (relative stereo) [Example 20, cis-1-Formyl-N-hydroxy-4-[({4-[(2-methylquinolin-4-yl)methoxy]phenyl}sulfonyl)amino]pyrrolidine-3-carboxamide], the IC50 against MMP-13 is 10.2 µM; in test [1], more than 16.7 µM; on recombinant human MMP-9, more than 16.7 µM; in test [2] it was 1.1 nM.
Turning to `CCNC(=O)N1C[C@H](C(=O)NO)[C@H](NS(=O)(=O)c2ccc(OCc3cc(C)nc4ccccc34)cc2)C1` (relative stereo) [Example 23, cis-1-Ethyl-N-hydroxy-4-[({4-[(2-methylquinolin-4-yl)methoxy]phenyl}sulfonyl)amino]pyrrolidine-1,3-dicarboxamide], the IC50 on MMP-13 was more than 16.7 µM; in test [1] it was more than 16.7 µM; on recombinant human MMP-9, more than 16.7 µM; in test [2] it was 1.3 nM.
Take `Cc1cc(COc2ccc(S(=O)(=O)N[C@H]3COC[C@H]3C(=O)NO)cc2)c2ccccc2n1` (stereo in doubt) [Example 26, (3S,4R)-4-[4-(2-Methyl-quinolin-4-ylmethoxy)-benzenesulfonylamino]-tetrahydro-furan-3-carboxylic acid hydroxyamide]: the IC50 against MMP-13 is more than 16.7 µM; in test [1], more than 16.7 µM; at recombinant human MMP-9 it was more than 16.7 µM; in test [2] it was 0.6 nM.
Take `Cc1cc(COc2ccc(S(=O)(=O)N[C@@H]3CCC[C@@H]3C(=O)NO)cc2)c2ccccc2n1` [Example 13, (1S,2R)-N-Hydroxy-2-[({4-[(2-methylquinolin-4-yl)methoxy]phenyl}sulfonyl)amino]cyclopentanecarboxamide]: the IC50 is more than 10 µM at MMP-13, more than 16.7 µM in test [1], more than 16.7 µM at recombinant human MMP-9 and less than 0.6 nM in test [2].
For `Cc1cc(COc2ccc(S(=O)(=O)N[C@@H]3CN(C(=O)NC(C)(C)C)CC[C@@H]3C(=O)NO)cc2)c2ccccc2n1` [Example 35, 3-[4-(2-Methyl-quinolin4-ylmethoxy)-benzenesulfonylamino]-piperidine-1,4-dicarboxylic acid 1-tert-butylamide 4-hydroxyamide], the IC50 at MMP-13 is more than 16.7 µM; in test [1], more than 16.7 µM; on recombinant human MMP-9, more than 16.7 µM; in test [2], 1.4 nM.

The values above are taken from patent US7595327B2, “Beta-sulfonamide hydroxamic acid inhibitors of tace/matrix metalloproteinase” (priority 2005, dated 2009).
